Earlier results, collected in patent publication US9320798B2, “Lipid delivery formulations” (Dicerna Pharmaceuticals, Inc., priority 2010, dated 2016).

Test system: TLR4
Settings: Numata et al. PNAS USA 107: 320-325; Abate et al., J Lipid Res 51: 334-344

## CCCCCCCCCCCCCCCC(=O)OC[C@H](COP(=O)([O-])OCC[N+](C)(C)C)OC(=O)CCCCCCCCCCCCCCC [DPPC, dipalmitoylphosphatidylcholine]
  TLR4 activation: capable of disrupting TLR4 activation

## CCCCCCCC/C=C\CCCCCCCC(=O)O[C@H](COC(=O)CCCCCCCCCCCCCCC)COP(=O)(O)OCC(O)CO (some centres unmarked) [POPG, palmitoyl-oleoyl-phosphatidylglycerol]
  TLR4 activation: capable of disrupting TLR4 activation
